Measured values published in US7432227B2, “6-alkyl or alkenyl-4-aminopicolinates and their use as herbicides” (Dow AgroSciences LLC, priority 2003, dated 2008).

How the values were obtained:
[1] = test system: Barnyardgrass (Echinochloa crus-galli); assay: Postemergence herbicidal activity, Barnyardgrass; type: in vivo; conditions: post-emergence, 336 h, visual score after 2 weeks, 0 = no injury, 100 = complete kill, read-out: Post-emergent % control ECHCG; for pest or weed control at 250 ppm: rate 250 ppm
Method: (§1) Seeds of the desired test plant species were planted in Grace-Sierra MetroMix® 306 planting mixture, which typically has a pH of 6.0 to 6.8 and an organic matter content of about 30 percent, in plastic pots with a surface area of 64 square centimeters. When required to ensure good germination and healthy plants, a fungicide treatment and/or other chemical or physical treatment was applied. The plants were grown for 7-21 days in a greenhouse with an approximate 15 hr photoperiod which was maintained at about 23-29° C. during the day and 22-28° C. during the night. Nutrients and water were added on a regular basis and supplemental lighting was provided with overhead metal halide 1000-Watt lamps as necessary. The plants were employed for testing when they reached the first or second true leaf stage. A weighed amount, determined by the highest rate to be tested, of each test compound was placed in a 20 mL glass vial and was dissolved in 4 mL of a 97:3 v/v (volume/volume) mixture of acetone and dimethyl sulfoxide (DMSO) to obtain concentrated stock solutions. […] The concentrated stock solutions obtained were diluted with an aqueous mixture containing acetone, water, isopropyl alcohol, DMSO, Atplus 411F crop oil concentrate, and Triton X-155 surfactant in a 48.5:39:10:1.5:1.0:0.02 v/v ratio to obtain spray solutions of known concentration. The solutions containing the highest concentration to be tested were prepared by diluting 2 mL aliquots of the stock solution with 13 mL of the mixture and lower concentrations were prepared by serial dilution of the stock solution. Approximately 1.5 mL aliquots of each solution of known concentration were sprayed evenly onto each of the test plant pots using a DeVilbiss atomizer driven by compressed air pressure of 2 to 4 psi (140 to 280 kilopascals) to obtain thorough coverage of each plant. Control plants were sprayed in the same manner with the aqueous mixture. In this test an application rate of 1 ppm results in the application of approximately 1 g/Ha. The treated plants and control plants were placed in a greenhouse as described above and watered by sub-irrigation to prevent wash-off of the test compounds. After 2 weeks the condition of the test plants as compared with that of the untreated plants was determined visually and scored on a scale of 0 to 100 percent where 0 corresponds to no injury and 100 corresponds to complete kill.

[2] = test system: Ivyleaf Morningglory (Ipomoea hederacea); assay: Preemergence herbicidal activity, Ivyleaf Morningglory; type: in vivo; conditions: pre-emergence, 504 h, visual score after 3 weeks, 100 = complete kill or no germination, read-out: Pre-emergent % control IPOHE; for pest or weed control at 280 ppm: rate 280 ppm; for pest or weed control at 560 ppm: rate 560 ppm; for pest or weed control at 140 ppm: rate 140 ppm
From the text: (§2) Seeds of the desired test plant species were planted in a soil matrix prepared by mixing a loam soil (43 percent silt, 19 percent clay, and 38 percent sand, with a pH of about 8.1 and an organic matter content of about 1.5 percent) and sand in a 70 to 30 ratio. The soil matrix was contained in plastic pots with a surface area of 113 square centimeters. When required to ensure good germination and healthy plants, a fungicide treatment and/or other chemical or physical treatment was applied. A weighed amount, determined by the highest rate to be tested, of each test compound was placed in a 20 mL glass vial and was dissolved in 4 mL of a 97:3 v/v (volume/volume) mixture of acetone and dimethyl sulfoxide to obtain concentrated stock solutions. […] The stock solutions obtained were diluted with a 99.9:0.1 mixture of water and Tween® […] surfactant to obtain application solutions of known concentration. The solutions containing the highest concentration to be tested were prepared by diluting 2 mL aliquots of the stock solution with 15 mL of the mixture and lower concentrations were prepared by serial dilution of the stock solution. A 2.5 mL aliquot of each solution of known concentration was sprayed evenly onto the soil surface (113 sq. cm) of each seeded pot using a Cornwall 5.0 mL glass syringe fitted with a TeeJet TN-3 hollow cone nozzle to obtain thorough coverage of the soil in each pot. Control pots were sprayed in the same manner with the aqueous mixture. The treated pots and control pots were placed in a greenhouse maintained with an approximate 15 hr photoperiod and temperatures of about 23-29° C. during the day and 22-28° C. during the night. Nutrients and water were added on a regular basis and supplemental lighting was provided with overhead metal halide 1000-Watt lamps as necessary. The water was added by top-irrigation. After 3 weeks the condition of the test plants that germinated and grew as compared with that of the untreated plants that germinated and grew was determined visually and scored on a scale of 0 to 100 percent where 0 corresponds to no injury and 100 corresponds to complete kill or no germination.

[3] = test system: Cocklebur (Xanthium strumarium); assay: Postemergence herbicidal activity, Cocklebur; type: in vivo; conditions: post-emergence, 336 h, visual score after 2 weeks, 0 = no injury, 100 = complete kill, read-out: Post-emergent % control XANST; for pest or weed control at 250 ppm: rate 250 ppm
Method: as §1

[4] = test system: Lambsquarter (Chenopodium album); assay: Postemergence herbicidal activity, Lambsquarter; type: in vivo; conditions: post-emergence, 336 h, visual score after 2 weeks, 0 = no injury, 100 = complete kill, read-out: Post-emergent % control CHEAL; for pest or weed control at 250 ppm: rate 250 ppm
Method: as §1

[5] = test system: Crabgrass(large) (Digitaria sanguinalis); assay: Preemergence herbicidal activity, Crabgrass(large); type: in vivo; conditions: pre-emergence, 504 h, visual score after 3 weeks, 100 = complete kill or no germination, read-out: Pre-emergent % control DIGSA; for pest or weed control at 280 ppm: rate 280 ppm; for pest or weed control at 560 ppm: rate 560 ppm; for pest or weed control at 140 ppm: rate 140 ppm
From the text: as §2

[6] = test system: Giant Foxtail (Setaria faberi); assay: Preemergence herbicidal activity, Giant Foxtail; type: in vivo; conditions: pre-emergence, 504 h, visual score after 3 weeks, 100 = complete kill or no germination, read-out: Pre-emergent % control SETFA; for pest or weed control at 280 ppm: rate 280 ppm; for pest or weed control at 560 ppm: rate 560 ppm; for pest or weed control at 140 ppm: rate 140 ppm
From the text: as §2

[7] = test system: Lambsquarter (Chenopodium album); assay: Preemergence herbicidal activity, Lambsquarter; type: in vivo; conditions: pre-emergence, 504 h, visual score after 3 weeks, 100 = complete kill or no germination, read-out: Pre-emergent % control CHEAL; for pest or weed control at 280 ppm: rate 280 ppm; for pest or weed control at 560 ppm: rate 560 ppm; for pest or weed control at 140 ppm: rate 140 ppm
From the text: as §2

[8] = test system: Giant Foxtail (Setaria faberi); assay: Postemergence herbicidal activity, Giant Foxtail; type: in vivo; conditions: post-emergence, 336 h, visual score after 2 weeks, 0 = no injury, 100 = complete kill, read-out: Post-emergent % control SETFA; for pest or weed control at 250 ppm: rate 250 ppm
Method: as §1

`C=Cc1nc(C(=O)OC)c(Cl)c(N)c1F` [Compound 1, Methyl 4-amino-3-chloro-5-fluoro-6-vinylpyridine-2-carboxylate] showed a pest or weed control at 250 ppm [1] of 60%, a pest or weed control at 280 ppm [2] of 100% and a pest or weed control at 250 ppm [3] of 100%. It also gave a pest or weed control at 250 ppm [4] of 100%, a pest or weed control at 280 ppm [5] of 95% and a melting point of 68 to 71 °C. It also gave a pest or weed control at 280 ppm [6] of 90%, a pest or weed control at 280 ppm [7] of 100% and a pest or weed control at 250 ppm [8] of 50%.

In the case of `C=Cc1cc(N)c(Cl)c(C(=O)OC)n1` [Compound 2, Methyl 4-amino-3-chloro-6-vinylpyridine-2-carboxylate], the pest or weed control at 250 ppm [1] is reported as 0%, the pest or weed control at 560 ppm [2] is reported as 60% and the pest or weed control at 250 ppm [3] is reported as 80%. For the same compound, the pest or weed control at 250 ppm [4] was 85%, the pest or weed control at 560 ppm [5] was 0% and the pest or weed control at 560 ppm [6] was 0%. The pest or weed control at 560 ppm [7] was 100% and the pest or weed control at 250 ppm [8] was 10%.

In the case of `CCc1nc(C(=O)OC)c(Cl)c(N)c1F` [Compound 3, Methyl 4-amino-3-chloro-6-ethyl-5-fluoropyridine-2-carboxylate], the pest or weed control at 250 ppm [1] is reported as 85%, the pest or weed control at 140 ppm [2] is reported as 100% and the pest or weed control at 250 ppm [3] is reported as 100%. The pest or weed control at 250 ppm [4] was 100%, the pest or weed control at 140 ppm [5] was 100% and the melting point was 109 to 110 °C. It also gave a pest or weed control at 140 ppm [6] of 100%, a pest or weed control at 140 ppm [7] of 100% and a pest or weed control at 250 ppm [8] of 80%.

Compound `CCc1nc(C(=O)O)c(Cl)c(N)c1F` [Compound 5, 4-Amino-3-chloro-6-ethyl-5-fluoropyridine-2-carboxylic acid] has a pest or weed control at 250 ppm [1] of 85%, a pest or weed control at 140 ppm [2] of 100% and a pest or weed control at 250 ppm [3] of 100%. It also gave a pest or weed control at 250 ppm [4] of 100%, a pest or weed control at 140 ppm [5] of 90% and a melting point of 144 to 145 °C. The pest or weed control at 140 ppm [6] was 90%, the pest or weed control at 140 ppm [7] was 100% and the pest or weed control at 250 ppm [8] was 70%.

In the case of `Cc1nc(C(=O)O)c(Cl)c(N)c1F` [Compound 7, 4-Amino-3-chloro-6-methyl-5-fluoropyridine-2-carboxylic acid], the pest or weed control at 288 ppm ([1]; rate 288 ppm) is reported as 80%, the pest or weed control at 295 ppm ([2]; rate 295 ppm) is reported as 98% and the pest or weed control at 288 ppm ([3]; rate 288 ppm) is reported as 100%. It also gave a pest or weed control at 288 ppm ([4]; rate 288 ppm) of 98%, a pest or weed control at 295 ppm ([5]; rate 295 ppm) of 85% and a pest or weed control at 295 ppm ([6]; rate 295 ppm) of 85%. It also gave a pest or weed control at 295 ppm ([7]; rate 295 ppm) of 98% and a pest or weed control at 288 ppm ([8]; rate 288 ppm) of 85%.

`Cc1cc(N)c(Cl)c(C(=O)O)n1` [Compound 8, 4-Amino-3-chloro-6-methylpyridine-2-carboxylic acid] showed a pest or weed control at 250 ppm [1] of 0%, a pest or weed control at 280 ppm [2] of 85% and a pest or weed control at 250 ppm [3] of 70%. It also gave a pest or weed control at 250 ppm [4] of 40%, a pest or weed control at 280 ppm [5] of 20% and a pest or weed control at 280 ppm [6] of 10%. For the same compound, the pest or weed control at 280 ppm [7] was 100% and the pest or weed control at 250 ppm [8] was 0%.

Compound `CSCc1cc(N)c(Cl)c(C(=O)O)n1` [Compound 10, 4-Amino-3-chloro-6-[(methylthio)methyl]pyridine-2-carboxylic acid] has a pest or weed control at 250 ppm [1] of 0%, a pest or weed control at 560 ppm [2] of 0% and a pest or weed control at 250 ppm [3] of 85%. For the same compound, the pest or weed control at 250 ppm [4] was 70%, the pest or weed control at 560 ppm [5] was 0% and the pest or weed control at 560 ppm [6] was 0%. The pest or weed control at 560 ppm [7] was 0% and the pest or weed control at 250 ppm [8] was 20%.

`C=CCc1cc(N)c(Cl)c(C(=O)O)n1` [Compound 11, 6-Allyl-4-amino-3-chloropyridine-2-carboxylic acid] showed a pest or weed control at 250 ppm [1] of 0%, a pest or weed control at 560 ppm [2] of 80% and a pest or weed control at 250 ppm [3] of 85%. The pest or weed control at 250 ppm [4] was 70%, the pest or weed control at 560 ppm [5] was 0% and the pest or weed control at 560 ppm [6] was 0%. It also gave a pest or weed control at 560 ppm [7] of 40% and a pest or weed control at 250 ppm [8] of 0%.

In the case of `COC(=O)c1nc(C)c(F)c(N)c1Cl` [Compound 12, Methyl 4-amino-3-chloro-5-fluoro-6-methylpyridine-2-carboxylate], the pest or weed control at 250 ppm [1] is reported as 80%, the pest or weed control at 140 ppm [2] is reported as 100% and the pest or weed control at 250 ppm [3] is reported as 100%. It also gave a pest or weed control at 250 ppm [4] of 100%, a pest or weed control at 140 ppm [5] of 100% and a melting point of 113 to 114 °C. It also gave a pest or weed control at 140 ppm [6] of 98%, a pest or weed control at 140 ppm [7] of 100% and a pest or weed control at 250 ppm [8] of 95%.
